{
  "source": "patent US20090305994A1",
  "about": "“Compounds Modulating Vegf Receptor and Uses Thereof” (priority 2005, published 2009)",
  "key": {"Flt-1": {"biological_target": "T1, Flt-1 (Bos taurus, UniProt F1MDD9)", "T1 construct": "we immunoprecipitated total KDR and Flt-1 from BAEC whole extracts; endogenous in cells; host or cells: BAEC (bovine aorta endothelial cells, SV40-immortalized)", "T1 sequence (F1MDD9 1-1251)": "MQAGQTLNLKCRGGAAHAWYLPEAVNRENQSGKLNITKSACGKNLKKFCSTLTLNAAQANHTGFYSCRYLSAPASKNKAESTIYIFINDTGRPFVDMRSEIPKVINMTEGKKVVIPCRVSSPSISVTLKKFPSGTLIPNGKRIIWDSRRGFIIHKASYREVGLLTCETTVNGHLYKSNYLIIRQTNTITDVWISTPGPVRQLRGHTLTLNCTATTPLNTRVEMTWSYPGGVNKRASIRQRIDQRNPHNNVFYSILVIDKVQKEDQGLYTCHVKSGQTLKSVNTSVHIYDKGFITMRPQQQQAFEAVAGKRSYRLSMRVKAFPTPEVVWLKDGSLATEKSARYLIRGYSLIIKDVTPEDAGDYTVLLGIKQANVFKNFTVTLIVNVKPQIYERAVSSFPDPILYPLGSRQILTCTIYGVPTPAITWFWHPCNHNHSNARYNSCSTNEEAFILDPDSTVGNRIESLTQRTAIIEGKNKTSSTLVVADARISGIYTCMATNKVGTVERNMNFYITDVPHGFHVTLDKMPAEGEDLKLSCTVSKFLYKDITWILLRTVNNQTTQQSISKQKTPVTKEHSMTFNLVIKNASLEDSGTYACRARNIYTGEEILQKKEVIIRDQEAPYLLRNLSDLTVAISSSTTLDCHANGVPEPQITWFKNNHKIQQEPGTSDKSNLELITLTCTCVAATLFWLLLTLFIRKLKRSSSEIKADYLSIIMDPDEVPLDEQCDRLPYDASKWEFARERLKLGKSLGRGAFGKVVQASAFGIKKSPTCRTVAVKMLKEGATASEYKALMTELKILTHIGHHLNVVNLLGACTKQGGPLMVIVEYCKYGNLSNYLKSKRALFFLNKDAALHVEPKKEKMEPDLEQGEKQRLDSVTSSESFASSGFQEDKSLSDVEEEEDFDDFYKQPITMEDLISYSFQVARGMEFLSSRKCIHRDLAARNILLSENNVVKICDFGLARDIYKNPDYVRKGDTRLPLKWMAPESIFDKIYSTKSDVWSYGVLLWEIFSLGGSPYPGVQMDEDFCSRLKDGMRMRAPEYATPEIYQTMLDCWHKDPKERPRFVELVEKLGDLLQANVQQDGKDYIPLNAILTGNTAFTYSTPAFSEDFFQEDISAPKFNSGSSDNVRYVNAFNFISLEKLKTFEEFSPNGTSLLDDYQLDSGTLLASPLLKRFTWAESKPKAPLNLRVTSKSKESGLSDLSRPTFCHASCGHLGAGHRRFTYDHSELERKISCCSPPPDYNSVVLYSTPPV", "assay": "Flt-1 activation (immunoprecipitation, phospho-tyrosine western blot) in BAEC", "format": "cell-based, bovine", "details": "15 minutes of exposure", "description": "VEGF receptors binding and activation. a) VEGF competitive binding on BAEC. 1 μg of membrane protein was plated with QK and [^125I]-VEGF (500000 cpm, 10^−10 M). b) KDR activation. After stimulation total KDR was immunoprecipitated from a whole-cell protein extracts and phospho-tyrosine was visualized by a specific antibody, anti-rabbit HRP-conjugated secondary antibody and standard chemiluminescence. c) Flt-1 activation. After stimulation total Flt-1 was immunoprecipitated from a whole-cell protein extracts and phospho-tyrosine was visualized by specific antibody, anti-rabbit HRP-conjugated secondary antibody and standard chemiluminescence.\nWestern blot. Cells were plated on six-well dishes and serum starved overnight. On the next day, cells were treated with different amount of peptide in absence or in presence of VEGF165 for 15 minutes at 37° C. and then dissolved in RIPA-SDS buffer (50 mM Tris-HCl (pH 7.5), 150 mM NaCl, 1% NP-40, 0.25% deoxycholate, 9.4 mg/50 ml sodium orthovanadate, […]). In some experiments, total KDR and Flt-1 were immunoprecipitated from an equal amount of whole-cell protein extracts using protein A/G agarose beads conjugated with antibodies raised against total KDR or Flt-1 (R&D). Proteins from whole-cell extracts or immunocomplexes were resolved by PAGE and transferred to nitrocellulose. […]"}, "BAEC": {"system": "BAEC", "assay": "Cells proliferation assay (cell number)", "format": "cell-based, bovine", "details": "24 hours", "description": "Effect of QK on cell proliferation. a) DNA synthesis. BAEC were incubated in DMEM with [^3H]-thymidine and QK in absence or in presence of VEGF165 (100 ng/ml). After 24 hours cells were fixed and lysed. Scintillation liquid was added and [^3H]-thymidine incorporation was evaluated. b) Cell proliferation. BAEC were stimulated with the indicated amount of QK in absence or in presence of VEGF165 (100 ng/ml). Cell number was determined at 24 hours after stimulation. c) RB phosphorylation. p-RB was evaluated at 12 and 18 hours after stimulation with QK (10^-6M), VEGF165 (100 ng/ml) and VEGF 15 (10^−6 M).\nCells proliferation assay. Cells were seeded at a density of 10000 per well in six well plates, serum starved overnight and then stimulated with QK (10-12 to 10^−6 M) in absence or in presence of VEGF165. Cell number was determined at 24 hours after stimulation. The p-RB, was evaluated by western blot 12 and 18 hours after stimulation with QK (10^−6 M), VEGF165 and VEGF 15 (10^−6 M)."}, "Human endothelial cells": {"system": "Human endothelial cells", "assay": "Angiogenesis in vitro assay (Angiokit, tubule formation, CD31 staining)", "format": "cell-based", "details": "eleventh day", "protocol": "In vitro angiogenic properties of QK. Human endothelial cells were co-cultured with other human cells in a specially designed medium in a 24 well plate. Every three days, QK alone or a combination of QK and VEGF165 (100 ng/ml) was added to the cultures. On the eleventh day, cells were fixed with ice cold 70% ethanol and tubule formation was visualized by staining for anti-human CD31 (PECAM-1).\nAngiogenesis in vitro assay. Human endothelial cells were co-cultured with other human cells in a specially designed medium (Angiokit, TCS CellWorks), in a 24 well plates. Every three days, QK in absence or in presence of VEGF165 was added to the cultures. VEGF and suramine (20 μM) were used as positive and negative controls respectively. […] On the eleventh day, cells were fixed with ice cold 70% ethanol and tubule formation was visualized by staining for anti-human CD31 (PECAM-1). Results were scored with the image analysis software, Angiosys software (TCS CellWorks).\nIn vitro angiogenesis assay. […] Tubule formation was evaluated by positive staining for CD31/PECAM-1, an intercellular adhesion molecule involved in leucocytes diapedesis. We determined the number of cell junctions corrected by the total tubules length."}},
  "data": [
    {"sequence": "KLTWQELYQLKYKGI [QK]", "values": [
      {"measurement": "Flt-1 phosphorylation", "setting": "Flt-1", "result": "increased the levels of phosphorylation of Flt-1"},
      {"measurement": "cell proliferation (cell number)", "setting": "BAEC; peptide alone", "result": "produces cell proliferation per se"},
      {"measurement": "cell proliferation in presence of VEGF", "setting": "BAEC; with VEGF165 100 ng/ml", "result": "enhances VEGF response"},
      {"measurement": "formation of new connections", "setting": "Human endothelial cells; peptide alone", "result": "induced the formation of new connections in a dose dependent manner"},
      {"measurement": "formation of new connections in presence of VEGF165", "setting": "Human endothelial cells; with VEGF165 100 ng/ml", "result": "enhanced the response to VEGF165"}
    ]}
  ]
}
